Laboratory results taken from PMC13198932, “Pyrazolone-based ERO1 inhibitors in ERO1-driven triple-negative breast cancer and SEPN1-related myopathy: Structure–activity relationship and therapeutic potential” (Pharmacological research, 2025).
“Also recorded” adds a separate entry of the source. Read-outs that look alike come from different tables or passages of the source.

Assays:
recombinant ERO1A [1] = target: T1, recombinant ERO1A (Mus musculus, UniProt Q8R180); design: method as in PMID 39962052; details: SAR of I1–I23, Fig. 8A; cited from earlier work
T1 construct: GST-SMT3-mouse ERO1A (residues 43–464); GST-SMT3 (GST-SUMO) (N, cleaved yes); made in house; host or cells: E. coli Rosetta DE3 (Novagen)
T1 sequence (Q8R180 43-464): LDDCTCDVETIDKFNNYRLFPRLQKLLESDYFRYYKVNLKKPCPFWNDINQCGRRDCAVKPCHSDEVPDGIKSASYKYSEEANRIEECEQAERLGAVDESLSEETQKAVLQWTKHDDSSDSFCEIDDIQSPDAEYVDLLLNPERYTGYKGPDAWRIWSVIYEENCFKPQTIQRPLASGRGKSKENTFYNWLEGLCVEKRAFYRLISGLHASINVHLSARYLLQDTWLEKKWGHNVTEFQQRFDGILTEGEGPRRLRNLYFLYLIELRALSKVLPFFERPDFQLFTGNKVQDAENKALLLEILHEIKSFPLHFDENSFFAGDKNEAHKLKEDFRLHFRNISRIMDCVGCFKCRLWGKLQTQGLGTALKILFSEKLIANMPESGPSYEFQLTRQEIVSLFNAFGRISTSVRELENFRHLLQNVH

[2] = target: T2, Human monoamine oxidase A (Mao-A) (Homo sapiens, UniProt P21397); test: Mao-A activity assay (commercial kit, p-tyramine, H2O2 fluorimetry); assay type: biochemical; details: 25 μM, 10 min incubation
T2 construct: purchased Sigma-Aldrich
T2 sequence (P21397 1-527): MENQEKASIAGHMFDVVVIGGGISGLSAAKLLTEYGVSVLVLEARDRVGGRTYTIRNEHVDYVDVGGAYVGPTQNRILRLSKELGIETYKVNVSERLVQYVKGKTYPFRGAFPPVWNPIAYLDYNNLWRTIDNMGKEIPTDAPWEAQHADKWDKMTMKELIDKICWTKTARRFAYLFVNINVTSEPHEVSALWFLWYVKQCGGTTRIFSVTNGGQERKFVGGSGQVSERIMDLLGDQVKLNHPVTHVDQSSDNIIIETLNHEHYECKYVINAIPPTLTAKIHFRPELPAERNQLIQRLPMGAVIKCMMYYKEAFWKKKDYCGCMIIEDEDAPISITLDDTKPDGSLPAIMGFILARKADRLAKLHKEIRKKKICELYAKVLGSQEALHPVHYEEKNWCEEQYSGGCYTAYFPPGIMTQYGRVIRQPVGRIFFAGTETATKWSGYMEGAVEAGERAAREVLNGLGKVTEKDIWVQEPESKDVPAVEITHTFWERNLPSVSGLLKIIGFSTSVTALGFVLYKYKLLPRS
Experimental: Mao-A activity was measured using a commercial assay kit according to the manufacturer’s instructions. Mao-A (0.837 μM) was incubated with vehicle (1 % DMSO), Clorgyline (50 μM), or various concentrations (1, 5, or 25 μM) of EN460, I2, I26, or I29 for 10 min. Mao-A catalyzes the oxidative deamination of p-tyramine, generating H2O2, which was quantified fluorimetrically (λex= 530; λem= 585 nm). Mao-A activity is presented as a percentage of the vehicle control.

E0771 tumors = system: E0771 tumors; design: method as in PMID 35853086, PMID 36063727, PMID 33531624, PMID 39962052; details: previous studies; cited from earlier work
MDAMB231 cells = test: MTS assay of metabolic activity in MDAMB231 cells; assay type: cell-based, human; details: MDAMB231, dose-response, 24 h, 1 % FBS
Experimental: Six thousand cells (MDAMB231 and E0771) per well were seeded in 96-well plates and cultured in medium containing 1 % FBS. Cells were treated with varying concentrations of compounds and, after 24 h, incubated with MTS [3-(4,5-dimethylthiazol-2-yl)-5-(3-carboxymethoxyphenyl)-2-(4 sulfophenyl)2Htetrazolium]and PMS (phenazine methosulfate), following the instructions of the CellTiter 96® Aqueous Non-Radioactive Cell Proliferation Assay (Promega). Measurements were performed using a TECAN Infinite M200 plate reader with […] at 490 nm.

recombinant PDI = recombinant PDI (Homo sapiens, UniProt P07237); test: PDI activity assay (insulin transhydrogenase / insulin turbidity assay); assay type: biochemical; details: 25 μM, 15 min incubation
Experimental: PDI activity was assessed using an insulin transhydrogenase assay. Bovine insulin (1 mg/mL) in sodium phosphate buffer, pH 7.0, containing 2 mM EDTA, was incubated with 1.4 μM recombinant PDI in the presence of vehicle (1 % DMSO) or various concentrations of isoquercetin (30 or 60 μM), EN460, I2, I26, or I29 (1, 5, or 25 μM) for 15 min. The turbidimetric assay of insulin disulfide reduction by PDI was initiated by adding 1 mM dithiothreitol, and the reaction was monitored at 650 nm for 80 min. PDI activity is presented as a percentage of the vehicle control.

recombinant ERO1A [3] = target: T1, recombinant ERO1A; test: AUR-based kinetic assay of ERO1A activity (recombinant ERO1A and PDIA1, HRP, Amplex Ultra Red); assay type: biochemical; details: for IC50: Table 1 in Fig. 3
From the text: A GST-SMT3-mouse ERO1A (residues 43–464) and His-tagged PDIA1 [30] were expressed in the Rosetta DE3 bacteria (Novagen) and purified as described in [29, 31]. The GST-SMT3 and His tags were cleaved using Ulp protease (Z03691, GenScript) and thrombin protease (T6884, Merck), respectively. Successful tag removal was confirmed by a shift to a lower molecular weight for ERO1A on SDS-PAGE and by the absence of signal in anti-His immunoblotting for PDIA1.
The kinetic assay of ERO1A activity is based on a reaction involving recombinant ERO1A and PDIA1 proteins, horseradish peroxidase (Worthington), and 5 μM Amplex Ultra Red, as detailed in [29]. The effect of ERO1A inhibitors was evaluated by preincubating the compounds with ERO1A and measuring the inhibition of the linear reaction rate, and the corresponding IC50 values were determined using Prism 10 (GraphPad).
EN460 and 16 newly synthesized derivatives (I24–I40) (except for I31, which was not evaluated due to potential toxicity associated with its CN group) were evaluated for their ability to inhibit ERO1-dependent AUR fluorescence using a kinetic assay with recombinant ERO1 and PDIA1, as previously described (Figs. 3A and 3B). Raw kinetic data showing AUR fluorescence over time in reactions containing reduced ERO1, PDIA1 and EN460-derivatives are presented in Fig. Sup.1 A and Sup. 1B. Reaction rates, measured in presence or absence of varying concentrations of each compound, were used to calculate IC50 values, defined as the concentration required to inhibit 50 % of ERO1 enzymatic activity (Figs. 3C, 3D and Fig. Sup1C).

[4] = target: T3, ERO1 in MDA-MB-231 breast cancer cells (Homo sapiens, UniProt Q96HE7); test: ERO1 redox state by non-reducing immunoblot in MDA-MB-231 cells; assay type: cell-based; details: MDA-MB-231, 1–100 μM, in physiological solution or dissolved in DMSO, Fig. 4B
T3 construct: Non-reducing Immunoblot of endogenous ERO1 in lysates of vehicle-treated MDAMB231; endogenous in cells; host or cells: MDA-MB-231
T3 sequence (Q96HE7 24-468): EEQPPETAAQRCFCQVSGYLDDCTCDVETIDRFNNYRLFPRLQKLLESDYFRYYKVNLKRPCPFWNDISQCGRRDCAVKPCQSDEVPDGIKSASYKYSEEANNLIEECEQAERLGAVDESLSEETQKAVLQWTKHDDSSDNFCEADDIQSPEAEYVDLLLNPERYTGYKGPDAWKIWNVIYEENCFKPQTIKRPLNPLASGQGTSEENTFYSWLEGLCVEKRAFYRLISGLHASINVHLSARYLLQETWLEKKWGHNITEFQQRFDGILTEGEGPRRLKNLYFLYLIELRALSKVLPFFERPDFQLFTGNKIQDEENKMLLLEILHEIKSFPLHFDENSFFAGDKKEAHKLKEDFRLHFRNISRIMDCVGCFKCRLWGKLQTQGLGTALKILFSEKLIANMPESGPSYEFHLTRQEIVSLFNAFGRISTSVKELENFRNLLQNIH
Experimental: MDAMB231 and E0771 cells were maintained in Dulbecco’s Modified Eagle’s Medium supplemented with 1 % fetal bovine serum and seeded at 70 % confluency in six-well plates one day prior to the experiment. Cells were treated with DTT (10 mM) and/or ERO1A inhibitors for 1–5 h. At the time of collection, phosphate-buffered saline containing 10 mM NEM was added, and cells were incubated on ice for 10 min in lysis buffer (50 mM Tris-HCl, pH 7.4; 150 mM NaCl; 1 % Triton X-100; 0.1 % SDS; 1 % sodium deoxycholate; protease inhibitors; and 10 mM NEM). Protein concentrations were determined using the BCA assay, and equal amounts of protein were separated by non-reducing SDS-PAGE followed by immunoblotting with a polyclonal antibody against ERO1A [33].

[5] = logarithm of IC50 in μM, compounds dissolved in DMSO, read-out: Log IC50 (confidence intervals) (converted)
[6] = compounds dissolved in DMSO, preincubated with ERO1A, NA stands for not active, read-out: IC50

Sequence of recombinant PDI (P07237 18-508, species assumed): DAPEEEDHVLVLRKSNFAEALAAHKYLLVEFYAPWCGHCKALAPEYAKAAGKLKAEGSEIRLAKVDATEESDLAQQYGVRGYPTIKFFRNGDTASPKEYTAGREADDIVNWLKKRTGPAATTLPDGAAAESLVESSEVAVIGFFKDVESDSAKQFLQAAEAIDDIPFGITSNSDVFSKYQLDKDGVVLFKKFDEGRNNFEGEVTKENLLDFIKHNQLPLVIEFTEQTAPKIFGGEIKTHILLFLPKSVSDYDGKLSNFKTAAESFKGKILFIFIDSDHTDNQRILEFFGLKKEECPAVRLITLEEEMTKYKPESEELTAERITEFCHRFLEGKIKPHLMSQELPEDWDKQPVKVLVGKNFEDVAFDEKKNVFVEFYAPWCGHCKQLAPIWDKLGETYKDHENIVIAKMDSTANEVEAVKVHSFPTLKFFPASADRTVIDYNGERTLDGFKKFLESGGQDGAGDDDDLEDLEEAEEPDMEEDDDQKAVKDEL

Compound | ERO1 inhibitory activity (in words) (recombinant ERO1A [1]) | IC50 (recombinant ERO1A [3]; [5]) | ERO1 inhibitory activity (in words) (recombinant ERO1A [3]; compounds dissolved in DMSO) | IC50 (recombinant ERO1A [3]; [6]) | other results
O=C1/C(=C/c2ccc(-c3ccccc3)o2)C(C(F)(F)F)=NN1c1ccc(Cl)cc1 [I1] | inactive |  |  |  | 
O=C1/C(=C/c2ccc(-c3ccccc3)o2)C(C(F)(F)F)=NN1c1ccc(Cl)cc1Cl [I2] | retained activity |  |  |  | Mao-A activity (percentage of the vehicle control) [2]: inhibited Mao-A activity; VEGFA levels (E0771 tumors): reduced VEGFA levels; metabolic activity (MTS assay) (MDAMB231 cells): significantly reduced metabolic activity; PDI activity (percentage of the vehicle control) (recombinant PDI): inhibited PDI activity; IC50 (recombinant ERO1A [1]): 8 µM
O=C(O)c1cccc(N2N=C(C(F)(F)F)/C(=C\c3ccc(-c4ccccc4)o3)C2=O)c1 [I3] | retained activity |  |  |  | IC50 (recombinant ERO1A [1]): 3.5 µM
COC(=O)c1cc(N2N=C(C(F)(F)F)/C(=C\c3ccc(-c4ccccc4)o3)C2=O)ccc1Cl [I6] | Inactive |  |  |  | 
O=C(O)c1cc(N2N=C(c3ccccc3)/C(=C\c3ccc(-c4ccccc4)o3)C2=O)ccc1Cl [I10] | abolished the activity |  |  |  | 
CC1=NN(c2ccc(Cl)c(C(=O)O)c2)C(=O)/C1=C/c1ccc(-c2ccccc2)o1 [I14] | abolished the activity |  |  |  | 
O=C1/C(=C/c2ccc(-c3ccccc3)o2)C(C(F)(F)F)=NN1c1cccc2ccccc12 [I24] |  | 8.51 µM |  |  | 
Cc1ccccc1N1N=C(C(F)(F)F)/C(=C\c2ccc(-c3ccccc3)o2)C1=O [I25] |  | 17.8 µM | lowest potency | 17.7 µM | 
Cc1cccc(C)c1N1N=C(C(F)(F)F)/C(=C\c2ccc(-c3ccccc3)o2)C1=O [I26] |  | 6.46 µM |  |  | Mao-A activity (percentage of the vehicle control) [2]: inhibited Mao-A activity; PDI activity (percentage of the vehicle control) (recombinant PDI): inhibited PDI activity
COc1ccccc1N1N=C(C(F)(F)F)/C(=C\c2ccc(-c3ccccc3)o2)C1=O [I27] |  | 8.51 µM |  |  | 
O=C1/C(=C/c2ccc(-c3ccccc3)o2)C(C(F)(F)F)=NN1c1ccccc1Cl [I28] |  | 4.79 µM |  |  | 
O=C1/C(=C/c2ccc(-c3ccccc3)o2)C(C(F)(F)F)=NN1c1cc(F)ccc1F [I30] |  | 10.7 µM |  | 10.7 µM | 
O=C1/C(=C/c2ccc(-c3ccccc3)o2)C(C(F)(F)F)=NN1c1cccnc1 [I32] |  | 19.1 µM |  | 19.1 µM | 
O=C1/C(=C/c2ccc(-c3ccccc3)o2)C(C(F)(F)F)=NN1c1cccc(S(=O)(=O)O)c1 [I34] |  |  | retained activity | 5.6 µM | metabolic activity (MTS assay) (MDAMB231 cells): inactive; ERO1 reduction / activity in cells [4]: failed to reduce ERO1A; also recorded: completely inactive in cells; ERO1 reduction / activity in cells ([4]; listed as I34(DMSO)): inactive in cells; IC50 / potency relative to EN460 (recombinant ERO1A [3]; compared with EN460): comparable to EN460; ERO1 inhibitory activity (in words) (recombinant ERO1A [3]; compound in aqueous solution (physiological solution)): completely inactive
O=C(O)c1cc(N2N=C(C(F)(F)F)/C(=C\c3ccc(-c4cccc(F)c4)o3)C2=O)ccc1Cl [I36] |  |  | did not significantly affect inhibitory activity compared to EN460; also recorded: maintained the potency |  | 
O=C(O)c1cc(N2N=C(C(F)(F)F)/C(=C\c3ccc(-c4cccc(C(F)(F)F)c4)o3)C2=O)ccc1Cl [I37] |  | 5.62 µM | did not significantly affect inhibitory activity compared to EN460; also recorded: maintained the potency |  | 
O=C(O)c1cc(N2N=C(C(F)(F)F)/C(=C\c3ccc(-c4ccc(F)cc4)o3)C2=O)ccc1Cl [I38] |  |  | loss of activity |  | 
COc1cccc(-c2ccc(/C=C3/C(=O)N(c4ccc(Cl)c(C(=O)O)c4)N=C3C(F)(F)F)o2)c1 [I39] |  |  | loss of activity | 10.5 µM | 
O=C(O)c1cc(N2N=C(C(F)(F)F)/C(=C\c3ccc(-c4ccccc4)s3)C2=O)ccc1Cl [I40] |  |  | reduced activity | 12 µM | 
